The values below come from patent US11053239B2, “Compounds as BLC-2-selective apoptosis-inducing agents” (Fochon Pharmaceuticals, Ltd., priority 2017, dated 2021).

The assay concerns RS4; 11 cells. In words: Cell proliferation assay (MTS), RS4; 11 cells. In kind it is cell-based. The following applies: Homo sapiens, RS4-11, 72 h, RS4; 11 (ATCC CRL-1873) cell proliferation, 30000 cells/well, 72 h, MTS; mechanism-based readout of Bcl-2 inhibition; read-out: RS4; 11 IC50. An excerpt:
MTS testing kit was purchased from Promega. The RPMI-1640, Fetal bovine serum and Penicillin-Streptomycin were purchased from Gibco. Dimethyl sulfoxide (DMSO) was purchased from Sigma.
To investigate whether a compound is able to inhibit the activity of Bcl-2 in cells, a mechanism-based assay using DOHH2 (DSMZ No.® ACC 47) and RS4; 11 (ATCC® CRL-1873™) cell was developed. In this assay, inhibition of Bcl-2 was detected by the inhibition of DOHH2 and RS4; 11 cells proliferation. DOHH2 and RS4; 11 cells were cultured in culture flasks to 40-80% confluence in RPMI-1640 plus 10% fetal bovine serum. Cells were collected and plated onto 96-well plates at desired cell density (DOHH2: 5000 cells/well; RS4; 11: 30000 cells/well). Plates were incubated overnight at 37° C., with 5% CO2 to adhere. Compounds were added to the plates, and the final compound concentrations were 10000, 3333, 1111, […], 124, 41, 14, 4.6 and 1.5 nM. Plates plated with DOHH2 or RS4; 11 cells were placed at 37° C., with 5% CO2 for 120 h (DOHH2) or 72 h (RS4; 11) respectively. 20 μl MTS/100 μl medium mixture solution were added to each well and incubate the plates for exactly 2 hours. The reaction was stopped by adding 25 μl 10% SDS per well. Measure absorbance at 490 nm and 650 nm (reference wavelength). ICso was calculated using GraphPad Prism 5.0.

With `CC1(C)CCC(CN2CCN(c3ccc(C(=O)NS(=O)(=O)c4ccc(NCC(N5CCP(C)(=O)CC5)C(F)(F)F)c([N+](=O)[O-])c4)c(Oc4cnc5[nH]ccc5c4)c3)CC2)=C(c2ccc(Cl)cc2)C1` (stereo not drawn) [Example 14, 2-((1H-pyrrolo[2,3-b]pyridin-5-yl)oxy)-4-(4-((4′-chloro-5,5-dimethyl-3,4,5,6-tetrahydro-[1,1′-biphenyl]-2-yl)methyl)piperazin-1-yl)-N-((3-nitro-4-((3,3,3-trifluoro-2-(4-methyl-4-oxido-1,4-azaphosphinan-1-yl)propyl)amino)phenyl)sulfonyl) benzamide], the IC50 was 520 nM.

As for `C[C@@H](CN1CCS(=O)(=NC#N)CC1)Nc1ccc(S(=O)(=O)NC(=O)c2ccc(N3CCN(CC4=C(c5ccc(Cl)cc5)CC(C)(C)CC4)CC3)cc2Oc2cnc3[nH]ccc3c2)cc1S(=O)(=O)C(F)(F)F` [Example 48, (S)-2-((1H-pyrrolo[2,3-b]pyridin-5-yl)oxy)-4-(4-((4′-chloro-5,5-dimethyl-3,4,5,6-tetrahydro-[1,1′-biphenyl]-2-yl)methyl)piperazin-1-yl)-N-((4-((1-(1-(cyanoimino)-1-oxido-1λ^6-thiomorpholino)propan-2-yl)amino)-3-((trifluoromethyl)sulfonyl)phenyl)sulfonyl)benzamide], the IC50 amounted to 173 nM.

For the compound `CN=S1(=O)CCC(CNc2ccc(S(=O)(=O)NC(=O)c3ccc(N4CCN(CC5=C(c6ccc(Cl)cc6)CC(C)(C)CC5)CC4)cc3Oc3cnc4[nH]ccc4c3)cc2[N+](=O)[O-])CC1` (stereo not drawn) [Example 29, 2-((1H-pyrrolo[2,3-b]pyridin-5-yl)oxy)-4-(4-((4′-chloro-5,5-dimethyl-3,4,5,6-tetrahydro-[1,1′-biphenyl]-2-yl)methyl)piperazin-1-yl)-N-((4-(((1-(methylimino)-1-oxidohexahydro-1λ^6-thiopyran-4-yl)methyl)amino)-3-nitrophenyl)sulfonyl)benzamide], the IC50 worked out at 323 nM.

For `CC(=O)N=S1(=O)CCC(CNc2ccc(S(=O)(=O)NC(=O)c3ccc(N4CCN(CC5=C(c6ccc(Cl)cc6)CC(C)(C)CC5)CC4)cc3Oc3cnc4[nH]ccc4c3)cc2[N+](=O)[O-])CC1` (stereo not drawn) [Example 31, 2-((1H-pyrrolo[2,3-b]pyridin-5-yl)oxy)-N-((4-(((1-(acetylimino)-1-oxidohexahydro-1λ^6-thiopyran-4-yl)methyl)amino)-3-nitrophenyl)sulfonyl)-4-(4-((4′-chloro-5,5-dimethyl-3,4,5,6-tetrahydro-[1,1′-biphenyl]-2-yl)methyl)piperazin-1-yl)benzamide], the IC50 came to 135 nM.

On to `CC1(C)CCC(CN2CCN(c3ccc(C(=O)NS(=O)(=O)c4ccc(NCCN5CCS(=O)(=NS(C)(=O)=O)CC5)c([N+](=O)[O-])c4)c(Oc4cnc5[nH]ccc5c4)c3)CC2)=C(c2ccc(Cl)cc2)C1` [Example 71, 2-((1H-pyrrolo[2,3-b]pyridin-5-yl)oxy)-4-(4-((4′-chloro-5,5-dimethyl-3,4,5,6-tetrahydro-[1,1′-biphenyl]-2-yl)methyl)piperazin-1-yl)-N-((4-((2-(1-((methylsulfonyl)imino)-1-oxido-1λ^6-thiomorpholino)ethyl)amino)-3-nitrophenyl)sulfonyl)benzamide], for which the IC50 amounted to 258 nM.

`CC(Nc1ccc(S(=O)(=O)NC(=O)c2ccc(N3CCN(CC4=C(c5ccc(Cl)cc5)CC(C)(C)CC4)CC3)cc2Oc2cnc3[nH]ccc3c2)cc1[N+](=O)[O-])C1CCS(=O)(=NC#N)CC1` (stereo not drawn) [Example 32, 2-((1H-pyrrolo[2,3-b]pyridin-5-yl)oxy)-4-(4-((4′-chloro-5,5-dimethyl-3,4,5,6-tetrahydro-[1,1′-biphenyl]-2-yl)methyl)piperazin-1-yl)-N-((4-((1-(1-(cyanoimino)-1-oxidohexahydro-1λ^6-thiopyran-4-yl)ethyl)amino)-3-nitrophenyl)sulfonyl)benzamide]: the IC50 was 438 nM.
